Measured values taken from patent publication US6124323A, “4-substituted piperidine analogs and their use as subtype selective NMDA receptor antagonists” (Warner-Lambert Company, priority 1998, dated 2000).
Counter-ions that a name gives are not always drawn.

Columns and labels:
[1] = biological target: T1, NMDA receptor subunits 1A/2A (Rattus norvegicus, UniProt P35439+Q00959); experiment: Electrophysiological assay at NMDA receptor subunits expressed in Xenopus oocytes, 1A/2A; assay type: cell-based; settings: glutamate 100 μm and glycine 1-100 μm
T1 construct: expressed in transfected cells; host or cells: Xenopus laevis oocytes (cRNA injection; clones from Dr. P. H. Seeburg)
T1 sequence (Q00959 20-1464 limits assumed, other chains not shown): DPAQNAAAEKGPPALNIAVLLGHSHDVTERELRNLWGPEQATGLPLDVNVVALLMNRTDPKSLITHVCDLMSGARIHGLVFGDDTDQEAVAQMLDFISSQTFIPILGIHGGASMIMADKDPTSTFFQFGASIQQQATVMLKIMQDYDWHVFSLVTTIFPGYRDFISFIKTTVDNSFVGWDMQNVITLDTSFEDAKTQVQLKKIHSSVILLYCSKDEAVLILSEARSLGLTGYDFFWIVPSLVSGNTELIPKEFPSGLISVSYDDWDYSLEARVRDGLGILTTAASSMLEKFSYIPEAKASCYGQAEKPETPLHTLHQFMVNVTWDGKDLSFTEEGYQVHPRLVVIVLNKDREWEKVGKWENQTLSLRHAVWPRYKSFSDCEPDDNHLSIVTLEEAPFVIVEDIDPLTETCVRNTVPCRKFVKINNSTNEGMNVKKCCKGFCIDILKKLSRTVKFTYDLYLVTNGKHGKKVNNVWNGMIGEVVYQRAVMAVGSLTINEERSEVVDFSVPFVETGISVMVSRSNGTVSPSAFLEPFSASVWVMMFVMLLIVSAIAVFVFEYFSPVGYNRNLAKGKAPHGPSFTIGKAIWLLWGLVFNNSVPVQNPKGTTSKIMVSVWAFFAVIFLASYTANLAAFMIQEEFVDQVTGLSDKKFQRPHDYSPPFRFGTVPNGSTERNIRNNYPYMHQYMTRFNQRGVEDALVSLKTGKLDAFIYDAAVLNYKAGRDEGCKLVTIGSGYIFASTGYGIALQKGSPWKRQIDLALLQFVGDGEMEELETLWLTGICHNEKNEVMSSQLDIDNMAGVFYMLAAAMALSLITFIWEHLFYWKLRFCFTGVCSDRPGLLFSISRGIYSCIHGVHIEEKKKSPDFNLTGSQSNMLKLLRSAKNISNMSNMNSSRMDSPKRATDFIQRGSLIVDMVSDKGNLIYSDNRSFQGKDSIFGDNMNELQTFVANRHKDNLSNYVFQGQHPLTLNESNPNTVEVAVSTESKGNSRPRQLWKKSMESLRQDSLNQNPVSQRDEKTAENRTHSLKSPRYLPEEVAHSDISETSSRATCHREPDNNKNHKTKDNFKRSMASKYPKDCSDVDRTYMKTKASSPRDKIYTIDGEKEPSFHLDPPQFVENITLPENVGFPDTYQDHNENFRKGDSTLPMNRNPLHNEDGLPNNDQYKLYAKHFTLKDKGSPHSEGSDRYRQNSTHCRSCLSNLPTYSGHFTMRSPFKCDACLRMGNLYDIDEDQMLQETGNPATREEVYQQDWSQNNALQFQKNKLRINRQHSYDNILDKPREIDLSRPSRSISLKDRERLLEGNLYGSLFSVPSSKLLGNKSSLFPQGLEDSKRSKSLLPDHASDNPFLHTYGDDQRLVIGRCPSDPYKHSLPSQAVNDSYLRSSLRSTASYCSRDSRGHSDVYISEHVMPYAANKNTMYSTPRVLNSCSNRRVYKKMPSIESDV
Procedure: (§1) Many of the properties of native NMDA receptors are seen in recombinant homomeric NR1 receptors. These properties are altered by the NR2 subunits. Recombinant NMDA receptors expressed in Xenopus oocytes have been studied by voltage-clamp recording, as has developmental and regional expression of the mRNAs encoding NMDA receptor subunits. Electrophysiological assays were utilized to characterize the actions of compounds at NMDA receptors expressed in Xenopus oocytes. The compounds were assayed at four subunit combinations of cloned rat NMDA receptors, corresponding to three putative NMDA receptor subtypes [Moriyoshi, et al. Nature 1991, 354, 31-37; Monyer et al, Science 1992, 256, 1217-1221; Kutsuwada et al, Nature 1992, 358, 36-41; Sugihara et al, Biochem. Biophys Res. Commun. 1992, 185, 826-832].
(§2) Electrophysiological Assays at NMDA Receptor Subunits
(§3) Preparation of RNA. cDNA clones encoding the NR1A, NR2A, NR2B, NR2C and NR2D rat NMDA receptor subtypes were provided by Dr. P. H. Seeburg (see, Moriyoshi et al., Nature (Lond.) 354:31-37 (1991); Kutsuwada et al., Nature (Lond.) 358:36-41 (1992) Monyer et al., Science (Washington, D.C.) 256:1217-1221 (1992); Ikeda et al., FEBS Lett. 313:34-38 (1992); Ishii et al., J. Biol. Chem. 268:2836-2843 (1993) for details of these clones or their mouse homologs). The clones were transformed into appropriate host bacteria and plasmid preparations were made with conventional DNA purification techniques. A sample of each clone was linearized by restriction enzyme digestion and cRNA was synthesized with T3 RNA polymerase. The cRNA was diluted to 400 ng/μl and stored in 1 μl aliquots at -80° C. until injection.
(§4) The Xenopus oocyte expression system. Mature female Xenopus laevis were anaesthetized (20-40 min) using 0.15% 3-aminobenzoic acid ethyl ester (MS-222) and 2-4 ovarian lobes were surgically removed. Oocytes at developmental stages IV-VI (Dumont, J. N., J. Morphol. 136:153-180 (1972)), were dissected from the ovary still surrounded by enveloping ovarian tissues. Follicle-enclosed oocytes were micro-injected with 1:1 mixtures of cRNA:NR1A+NR2A, 2B, 2C or 2D; injecting ~2,5, or 20 ng of RNA encoding each receptor subunit. NR1A encoding cRNA was injected alone at ~20 ng. Oocytes were stored in Barth's medium containing (in mM):NaCl, 88; KCl, 1; CaCl2, 0.41; Ca(NO3)2, 0.33; MgSO4, 0.82 NaHCO3, 2.4; HEPES 5, pH 7.4, with 0.1 mg/ml gentamicin sulphate. While oocytes were still surrounded by enveloping ovarian tissues the Barth's medium was supplemented with 0.1% bovine serum. Oocytes were defolliculated 1-2 days following injections by treatment with collagenase (0.5 mg/ml Sigma Type I for 0.5-1 hr) (Miledi and Woodward, J. Physiol. (Lond.) 416:601-621 (1989)) and subsequently stored in serum-free medium.
(§5) Electrical recordings were made using a conventional two-electrode voltage clamp (Dagan TEV-200) over periods ranging between 3-21 days following injection. (Woodward et al., Mol. Pharmacol. 41: 89-103 (1992)). Oocytes were placed in a 0.1 ml recording chamber continuously perfused (5-15 ml min^-1 ) with frog Ringer's solution containing (in mM):NaCl, 115; KCl, 2; CaCl2, 1.8; HEPES, 5; pH 7.4. Drugs were applied by bath perfusion. Using oocytes expressing different subunit combinations of NMDA receptor, NMDA currents were activated by co-application of glutamate (100 μm) and glycine (1-100 μm). Inhibitory potency of the novel antagonists was assessed on responses elicited by fixed concentrations of glutamate and glycine, by measuring reductions in current induced by progressively increasing concentrations of antagonist. Concentration-inhibition curves were fit with equation 1.
(§6) I/Icontrol =1/(1+([antagonist]/10^-pIC50)^n) Eq. 1
(§7) in which Icontrol is the current evoked by agonists alone, pIC50 =-log IC50, IC50 is the concentration of antagonist that produces half maximal inhibition, and n is the slope factor. (De Lean et al., Am. J. Physiol. 235:E97-102 (1978)). […]

[2] = biological target: T2, NMDA receptor subunits 1A/2B (Rattus norvegicus, UniProt P35439+Q00960); experiment: Electrophysiological assay at NMDA receptor subunits expressed in Xenopus oocytes, 1A/2B; assay type: cell-based; settings: Xenopus oocytes; glutamate 100 μm and glycine 1-100 μm; read-out: Subunits IC50, 1A/2B
T2 construct: expressed in transfected cells; host or cells: Xenopus laevis oocytes (cRNA injection; clones from Dr. P. H. Seeburg)
T2 sequence (Q00960 27-1482, other chains not shown): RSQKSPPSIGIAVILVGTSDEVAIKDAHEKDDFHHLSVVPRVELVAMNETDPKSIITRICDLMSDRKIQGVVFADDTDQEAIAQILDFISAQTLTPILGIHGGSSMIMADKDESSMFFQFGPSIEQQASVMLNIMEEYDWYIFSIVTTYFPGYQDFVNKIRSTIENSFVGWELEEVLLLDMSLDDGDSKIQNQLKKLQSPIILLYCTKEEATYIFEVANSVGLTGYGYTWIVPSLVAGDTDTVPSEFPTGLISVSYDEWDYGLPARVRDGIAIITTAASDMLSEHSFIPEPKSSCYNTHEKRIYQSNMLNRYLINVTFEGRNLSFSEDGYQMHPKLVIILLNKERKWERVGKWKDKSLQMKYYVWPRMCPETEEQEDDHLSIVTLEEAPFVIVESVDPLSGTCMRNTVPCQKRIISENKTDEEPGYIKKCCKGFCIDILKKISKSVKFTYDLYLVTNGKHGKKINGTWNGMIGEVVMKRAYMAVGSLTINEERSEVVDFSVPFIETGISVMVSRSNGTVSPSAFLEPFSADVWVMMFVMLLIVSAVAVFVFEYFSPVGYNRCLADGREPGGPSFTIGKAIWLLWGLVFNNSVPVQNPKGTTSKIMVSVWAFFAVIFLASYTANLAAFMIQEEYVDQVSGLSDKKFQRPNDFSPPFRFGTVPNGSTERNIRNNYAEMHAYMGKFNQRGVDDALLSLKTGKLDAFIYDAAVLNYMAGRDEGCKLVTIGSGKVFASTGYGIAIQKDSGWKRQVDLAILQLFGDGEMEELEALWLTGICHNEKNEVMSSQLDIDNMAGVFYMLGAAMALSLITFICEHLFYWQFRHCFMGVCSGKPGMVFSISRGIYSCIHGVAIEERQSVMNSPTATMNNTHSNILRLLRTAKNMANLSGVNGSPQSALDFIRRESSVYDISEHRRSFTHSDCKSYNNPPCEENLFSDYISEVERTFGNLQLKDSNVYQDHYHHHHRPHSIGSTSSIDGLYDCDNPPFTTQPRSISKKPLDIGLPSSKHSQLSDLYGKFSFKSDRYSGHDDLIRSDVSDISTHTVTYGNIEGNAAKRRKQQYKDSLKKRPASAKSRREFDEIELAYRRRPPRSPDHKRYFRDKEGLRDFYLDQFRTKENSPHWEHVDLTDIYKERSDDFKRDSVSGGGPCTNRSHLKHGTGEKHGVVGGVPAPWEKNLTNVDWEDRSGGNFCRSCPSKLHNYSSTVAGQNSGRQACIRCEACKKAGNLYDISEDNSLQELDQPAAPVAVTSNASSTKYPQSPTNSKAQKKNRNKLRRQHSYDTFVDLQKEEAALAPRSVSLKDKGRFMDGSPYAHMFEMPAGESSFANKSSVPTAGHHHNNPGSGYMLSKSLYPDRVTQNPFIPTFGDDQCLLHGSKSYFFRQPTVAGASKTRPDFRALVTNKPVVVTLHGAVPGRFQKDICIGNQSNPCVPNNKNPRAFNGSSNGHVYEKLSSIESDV
Procedure: as §1, §2, §3, §4, §5, §6, §7

[3] = biological target: T3, NMDA receptor subunits 1A/2C (Rattus norvegicus, UniProt P35439+Q00961); experiment: Electrophysiological assay at NMDA receptor subunits expressed in Xenopus oocytes, 1A/2C; assay type: cell-based; settings: Xenopus oocytes; glutamate 100 μm and glycine 1-100 μm; read-out: Subunits IC50, 1A/2C
T3 construct: expressed in transfected cells; host or cells: Xenopus laevis oocytes (cRNA injection; clones from Dr. P. H. Seeburg)
T3 sequence (Q00961 20-1237, other chains not shown): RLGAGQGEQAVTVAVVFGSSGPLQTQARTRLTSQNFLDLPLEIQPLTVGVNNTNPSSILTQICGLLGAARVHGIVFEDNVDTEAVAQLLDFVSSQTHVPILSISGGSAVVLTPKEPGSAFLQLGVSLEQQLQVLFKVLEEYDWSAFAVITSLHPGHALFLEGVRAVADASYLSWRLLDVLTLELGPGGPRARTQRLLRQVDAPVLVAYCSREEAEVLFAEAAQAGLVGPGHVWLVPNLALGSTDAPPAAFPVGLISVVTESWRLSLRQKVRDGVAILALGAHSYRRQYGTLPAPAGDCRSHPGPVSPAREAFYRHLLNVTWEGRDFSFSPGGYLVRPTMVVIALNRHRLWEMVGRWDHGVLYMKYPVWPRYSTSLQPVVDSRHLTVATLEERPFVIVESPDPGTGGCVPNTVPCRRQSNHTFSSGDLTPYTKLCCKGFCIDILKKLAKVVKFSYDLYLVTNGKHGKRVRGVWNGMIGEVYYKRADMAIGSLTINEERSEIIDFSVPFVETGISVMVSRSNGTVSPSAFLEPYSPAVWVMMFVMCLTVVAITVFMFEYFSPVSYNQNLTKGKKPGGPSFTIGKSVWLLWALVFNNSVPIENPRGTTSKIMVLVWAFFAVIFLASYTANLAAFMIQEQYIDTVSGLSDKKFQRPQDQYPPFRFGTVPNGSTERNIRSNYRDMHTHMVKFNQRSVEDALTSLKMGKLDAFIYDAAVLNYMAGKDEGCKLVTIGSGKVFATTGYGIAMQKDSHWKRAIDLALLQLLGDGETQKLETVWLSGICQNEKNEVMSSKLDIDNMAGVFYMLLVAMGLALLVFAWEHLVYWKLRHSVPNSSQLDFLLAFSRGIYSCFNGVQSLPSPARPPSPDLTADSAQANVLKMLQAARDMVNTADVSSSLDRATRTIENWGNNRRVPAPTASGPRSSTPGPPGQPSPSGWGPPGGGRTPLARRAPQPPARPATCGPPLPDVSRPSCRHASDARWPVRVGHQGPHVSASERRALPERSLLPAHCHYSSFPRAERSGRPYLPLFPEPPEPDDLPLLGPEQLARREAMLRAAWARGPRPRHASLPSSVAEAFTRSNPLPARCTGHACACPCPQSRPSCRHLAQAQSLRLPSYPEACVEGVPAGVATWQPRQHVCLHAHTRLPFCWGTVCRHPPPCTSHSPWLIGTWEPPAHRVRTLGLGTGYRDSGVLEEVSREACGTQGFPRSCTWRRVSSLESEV
Procedure: as §1, §2, §3, §4, §5, §6, §7

[4] = tested on: Maximal Electroshock-induced Seizures; experiment: Maximal electroshock-induced seizures (MES); assay type: in vivo; settings: Mus musculus; mice; 50 mA, 60 pulses/sec, 1 sec
Excerpt: Seizures were induced by application of current (50 mA, 60 pulses/sec, 0.8 sec pulse width, 1 sec duration, d.c.) through saline-coated corneal electrodes using a Ugo Basile ECT device (Model 7801). […] A tonic seizure was defined as a hindlimb extension in excess of 90 degrees from the plane of the body.

Row | Structure (SMILES) | IC50 [1] [µM] | IC50 [2] [µM] | IC50 [3] [µM] | ED50 [4] [mg/kg]
1 | OC(COc1cccc2ccccc12)CN1CCC(Cc2ccccc2)CC1 (centres unmarked) [Ex. 3, 4-Benzyl-1-[2-hydroxy-3-(1-naphthyloxy)propyl]piperidine] | 35 | 2.8 | > 100 | 2
2 | O=[N+]([O-])c1ccc(OCCN2CCC(Cc3ccc(Cl)cc3)CC2)cc1 [Ex. 27, 4-(4-Chlorobenzyl)-1-(2-(4-nitrophenoxy)ethyl)piperidine hydrobromide] |  | 5 | > 100 | 5
3 | Br.Br.Nc1ccc(OCCN2CCC(Cc3ccc(Cl)cc3)CC2)cc1 [Ex. 28, 1-(2-(4-Aminophenoxy)ethyl)-4-(4-chlorobenzyl)piperidine dihydrobromide] | 38 | 0.4 | > 100 | 5
4 | Clc1ccc(CC2CCN(CCCOc3ccccc3)CC2)cc1 [Ex. 30, 4-(4-Chlorobenzyl)-1-(3-phenoxypropyl)piperidine hydrobromide] | 50 | 0.8 | 100 | 6
5 | Fc1cccc(OCCCN2CCC(Cc3ccc(Cl)cc3)CC2)c1 [Ex. 31, 4-(4-Chlorobenzyl)-1-(3-(3-fluorophenoxy)propyl)piperidine hydrobromide] | 34 | 0.9 | 60 | 7.5
6 | Fc1ccc(CC2CCN(CCOc3ccc(F)cc3)CC2)cc1 [Ex. 33, 4-(4-Fluorobenzyl)-1-(2-(4-fluorophenoxy)ethyl)piperidine hydrochloride] |  | 2 | > 100 | 4
7 | Fc1ccc(OCCN2CCC(Nc3ccc(Cl)cc3)CC2)cc1 [Ex. 38, 4-(4-Chloroanilino)-1-(2-(4-fluorophenoxy)ethyl)piperidine dihydrochloride] | 75 | 45 | > 100 | 10
8 | Clc1ccc(NC2CCN(CCCOc3ccccc3)CC2)cc1 [Ex. 40, 4-(N-(4-Chloroanilino)-1-(3-phenoxypropyl)piperidine hydrobromide] | 80 | 3 | 100 | 2.5
9 | Nc1ccc(OCCN2CCC(Cc3ccccc3)CC2)cc1 [Ex. 65, 4-Benzyl-1-[2-(4-aminophenoxy)ethyl]piperidine] |  |  |  | 6
10 | c1ccc(CCN2CCC(Cc3ccccc3)CC2)cc1 [Ex. 83, 4-Benzyl-1-(2-phenylethyl)piperidine hydrochloride] |  | 1 | > 100 | 2
11 | OC1(Cc2ccccc2)CCN(CCc2ccccc2)CC1 [Ex. 90, 4-Benzyl-4-hydroxy-1-(2-phenylethyl)piperidine hydrochloride] |  | 5 | > 100 | 5
12 | O=c1[nH]c2ccccc2n1C1CCN(CCCOc2ccccc2)CC1 [Ex. 96, 4-(2-Keto-1-benzimidazolinyl)-1-(3-phenoxypropyl)piperidine hydrobromide] |  | 17 | > 100 | 3.5
13 | Oc1ccc(OCCN2CCC(Cc3ccc4c(c3)CCCC4)CC2)cc1 [Ex. 139, 4-((5,6,7,8-Tetrahydro-2-naphthyl)methyl)-1-(2-(4-hydroxyphenoxy)ethyl)piperidine hydrochloride] | 70 | 0.25 |  | 4.5
14 | Cl.Oc1ccc(OCCN2CCC(Cc3ccc(F)cc3)CC2)cc1F [Ex. 150, 1-[2-(4-Hydroxy-3-fluorophenoxy)ethyl]-4-(4-fluorobenzyl)piperidine hydrochloride] |  | 0.02 | > 300 | 3

More lines, main results first:

Row | IC50 [1] [µM] | IC50 [2] [µM] | IC50 [3] [µM] | Structure (SMILES) | ED50 [4] [mg/kg]
15 | 89 | 1.1 | > 100 | c1ccc(CC2CCN(CCCOc3ccccc3)CC2)cc1 [Ex. 2, 4-Benzyl-1-(3-phenoxypropyl)piperidine] | 3
16 | 90 | 1.3 | > 100 | Br.Br.Nc1ccc(OCCN2CCC(Cc3ccccc3)CC2)cc1 [Ex. 13, 1-(2-(4-Aminophenoxy)ethyl)-4-benzylpiperidine dihydrobromide] | 6
17 |  | 1.2 | > 100 | Cl.O=Cc1cccc(OCCN2CCC(Cc3ccccc3)CC2)c1 [Ex. 15, 3-((2-(4-Benzylpiperidin-1-yl)ethyl)oxy)benzaldehyde hydrochloride] | 100
18 |  | 0.5 | > 100 | ON=Cc1cccc(OCCN2CCC(Cc3ccccc3)CC2)c1 [Ex. 16, 3-((2-(4-Benzylpiperidin-1-yl)ethyl)oxy)benzaldehyde oxime] | 2.5
19 | 60 | 0.4 | > 100 | OCCc1cccc(OCCN2CCC(Cc3ccccc3)CC2)c1 [Ex. 18, 4-Benzyl-1-(2-(3-(2-hydroxyethyl)phenoxy)ethyl)piperidine] | 6
20 |  | 0.35 |  | NC(=O)Cc1cccc(OCCN2CCC(Cc3ccccc3)CC2)c1 [Ex. 19, 1-(2-(3-(Aminocarbonylmethyl)phenoxy)ethyl)-4-benzylpiperidine] | 6
21 | 90 | 0.9 | > 100 | Fc1cccc(OCCCN2CCC(Cc3ccccc3)CC2)c1 [Ex. 22, 4-Benzyl-1-(3-(3-fluorophenoxy)propyl)piperidine hydrobromide] | 4
22 | 70 | 1 | 100 | Clc1ccc(CC2CCN(CCOc3ccccc3)CC2)cc1 [Ex. 24, 4-(4-Chlorobenzyl)-1-(2-phenoxyethyl)piperidine hydrochloride] | 2
23 |  | 0.31 | > 100 | Nc1cccc(OCCN2CCC(Cc3ccccc3)CC2)c1N [Ex. 53, 4-Benzyl-1-[2-(2,3-diaminophenoxy)ethyl]piperidine] | 2.5
24 |  | 0.3 | > 100 | Nc1ccc(OCCN2CCC(Cc3ccccc3)CC2)cc1N [Ex. 57, 4-Benzyl-1-[2-(3,4-diaminophenoxy)ethyl]piperidine] | 6.5
25 |  | 0.3 | > 100 | Nc1ccccc1OCCN1CCC(Cc2ccccc2)CC1 [Ex. 61, 4-Benzyl-1-[2-(2-aminophenoxy)ethyl]piperidine] | 2.5
26 |  | 0.5 | > 100 | Nc1cccc(OCCN2CCC(Cc3ccccc3)CC2)c1 [Ex. 63, 4-Benzyl-1-[2-(3-aminophenoxy)ethyl]piperidine] | 3
27 |  | 1 | > 100 | COc1ccc(OCCN2CCC(Cc3ccccc3)CC2)cc1 [Ex. 70] | 1.5
